We go through six compounds from US11377466B2, “Analogs of the natural product icariin” (Whitehead Institute for Biomedical Research, priority 2018, dated 2022).

Assay [1] has as its target T1, human PDE5 (Homo sapiens, UniProt O76074).
T1 construct: host or cells: COS-7 cells (lysate), transfected with human PDE5
The conditions noted are these: reported by Dell'Agli et al.; COS-7 lysate expressing human PDE5; cited from earlier work.

For assay [2], the target named is T2, purified recombinant human PDE5 (Homo sapiens, UniProt O76074).
T2 construct: purchased Abcam AB125581
As to the kind of experiment: In vitro PDE5 inhibition assay (GMP production from cGMP, LC-MS). The conditions noted are these: for IC50: cGMP at 1/10 of Km. It counts as biochemical. Here is the method:
To evaluate the nine icariin analogs, the IC50 of each analog, icariin, and sildenafil were measured in an in vitro PDE5 inhibition assay, which measures GMP production from cGMP by purified recombinant human PDE5. Table 1 summarizes the IC50 values obtained for the nine icariin analogs tested. Fold improved potency in Table 1 refers to fold change in IC50 compared to icariin.
[…]. […] PDE5 (purified recombinant human PDE5 purchased from Abcam, Product No. AB125581) was added to start the reaction. The reaction was at room temperature until approximately 10-15% of cGMP in uninhibited control reactions was consumed. Keeping cGMP concentration low and staying within a linear reaction ensured that the reaction remained within Michaelis-Menten model assumptions and that the IC50 could be approximated to the inhibition constant or Ki (as substrate concentration decreases, IC50 value approaches Ki value). The reaction was stopped with the addition of 0.1 M hydrochloric acid. The amount of GMP produced was measured by LC-MS.

In a further assay the test system is SKMEL-5 cells. Put plainly: Cytotoxicity measured by resazurin, SKMEL-5. It counts as cell-based. As to conditions: Homo sapiens, SK-MEL-5, 0-10 μM. How it is done:
(§1) A general feature of compounds with promise as viable therapeutics is a lack of toxicity to human cells. To test the icariin analogs for this feature, each analog was assayed against a panel of five human cell lines for cytotoxicity. The five human cell lines represent various tissue types—normalized, untransformed epithelial cells derived from fetal foreskin, neuroblastoma, melanoma, prostate, and lung. A Western blot against PDE5 confirmed that all five cell lines express PDE5 protein (data not shown). Compounds 2-7 were assayed at concentrations ranging from 0-10 μM, ensuring that all compounds remained soluble. […]
(In general: Resazurin is reduced to fluorescent resorufin, in cell work by metabolically active cells.)

The next assay relates to BJHTERT+ cells. Put plainly: Cytotoxicity measured by resazurin, BJHTERT+ (BjH+). The format is cell-based. The conditions noted are these: Homo sapiens, 0-10 μM. Here is the method: as §1
The test system of the next assay is H187 cells. Put plainly: Cytotoxicity measured by resazurin, H187. As to conditions: Homo sapiens, NCI-H187, 0-10 μM. The format is cell-based. Here is the method:
as §1

Assay [3] relates to panel of five human cell lines. As to the kind of experiment: Cytotoxicity against a panel of five human cell lines (resazurin). The format is cell-based. The conditions noted are these: 2 and 4: two out of five cell lines, 6: three out of five cell lines, 0-10 μM, read-out: IC50 of toxicity in the affected cell lines. Here is the method:
as §1

Assay [4] addresses T1, human PDE5. As to conditions: competitive inhibitor of human PDE5; previous work; cited from earlier work.
Assay [5] has as its system cavernous smooth muscle cells. As to conditions: cavernous smooth muscle cells isolated from icariin-treated mice; cited from earlier work.
Setting [6] is: purified recombinant human PDE5.

Each structure is given as a SMILES string. Like-named read-outs stand apart in the source and are kept apart here.

In the case of `COc1ccc(-c2oc3c(CC=C(C)C)c(O)cc(O)c3c(=O)c2O[C@@H]2O[C@H](C)[C@@H](O)[C@H](O)[C@@H]2O)cc1` [Compound 1, icariside II], on human PDE5 [1], the IC50 was 160 nM.

Turning to `COc1ccc(-c2oc3c(CC=C(C)C)c(O[C@@H]4O[C@H](CO)[C@@H](O)[C@H](O)[C@H]4O)cc(O)c3c(=O)c2OCCO)cc1` [Compound 3], in assay [2] (enzyme kinetics, purified recombinant human PDE5), the Ki came out at 36 ± 5 nM. Further, the half-maximal inhibitory concentration (IC50) in assay [2] (setting [6]) amounted to 83 ± 10 nM.

As for `COc1ccc(-c2oc3c(CC=C(C)C)c(O[C@@H]4O[C@H](CO)[C@@H](O)[C@H](O)[C@H]4O)cc(O)c3c(=O)c2OCC(C)O)cc1` (stereo partly shown) [Compound 5], the concentration for half-maximal inhibition (IC50) in assay [2] (setting [6]) is 500 ± 100 nM.

As to `COc1ccc(-c2oc3c(CC=C(C)C)c(O)cc(O)c3c(=O)c2OCCO)cc1` [Compound 6], the IC50 is 4.45 µM with SKMEL-5 cells, 6.73 µM in the assay with BJHTERT+ cells, 5.92 µM in the assay with H187 cells and 4000 to 7000 nM in assay [3].

In the case of `COc1ccc(-c2oc3c(CC=C(C)C)c(O)cc(O)c3c(=O)c2O)cc1` [Compound 9, icaritin], the 50% inhibitory concentration (IC50) in assay [2] (setting [6]) was 1800 ± 800 nM.

On to `COc1ccc(-c2oc3c(CC=C(C)C)c(O[C@@H]4O[C@H](CO)[C@@H](O)[C@H](O)[C@H]4O)cc(O)c3c(=O)c2O[C@@H]2O[C@@H](C)[C@H](O)[C@@H](O)[C@H]2O)cc1` [icariin], for which the Field improved potency in assay [2] (fold change in IC50 compared to icariin) came to 1. In addition, the IC50 is 6000 ± 1000 nM in assay [2] (setting [6]) and 1000 to 6000 nM at human PDE5 [4]. In assay [5], the cGMP levels entry is reported as “increase cGMP levels”.

As usually defined, the IC50 is the midpoint of a concentration-inhibition curve. By Ki is commonly meant a measure of affinity in units of concentration, obtained from inhibition or displacement.
